The record followed here is ChEMBL document CHEMBL1131825, “A 2-nitroimidazole carbamate prodrug of 5-amimo-1-(chloromethyl)-3-[(5,6,7-trimethoxyindol-2-yl)carbony l]-1,2-dihydro-3H--benz[E]indole (amino-seco-CBI-TMI) for use with ADEPT and GDEPT” (Bioorg Med Chem Lett, 1999).

For assay [1], the system named is SC-3. The assay is described as follows: In vitro cytotoxicity against SC3.2 cell proliferation after 18 hr exposure. Conditions: Mus musculus, SC-3, 18 h. The format is functional, cell-based, Homo sapiens.
For assay [2], the system named is SK-OV-3. Put plainly: In vitro cytotoxicity against SKOV3 cell proliferation after 18 hr exposure in presence of 1 mM NADH + NTR. As to conditions: Homo sapiens, SK-OV-3, 18 h. The class given is functional, cell-based.
Assay [3] relates to SK-OV-3. The assay is described as follows: In vitro cytotoxicity against SKOV3 cell proliferation after 18 hr exposure in presence of 1 mM NADH. The format is functional, cell-based. Conditions: Homo sapiens, SK-OV-3, 18 h.
For assay [4], the system named is SK-OV-3. The assay is described as follows: In vitro cytotoxicity against SKOV3 cell proliferation after 18 hr exposure in absence of reagent. The class given is functional, cell-based. As to conditions: Homo sapiens, SK-OV-3, 18 h.
The test system of assay [5] is SK-OV-3. Put plainly: In vitro cytotoxic activity against SKOV3 cell line after 1 hour at 20% oxygen present in gas phase. The format is functional, Homo sapiens.
The test system of assay [6] is SK-OV-3. Put plainly: In vitro cytotoxic activity against SKOV3 cell line after 4 hours at less than 0.01 % of oxygen in gas phase. The format is functional, Homo sapiens.
Assay [7] concerns SK-OV-3. Put plainly: In vitro cytotoxic activity against SKOV3 cell line after 4 hours at 20% oxygen present in gas phase. The format is functional, Homo sapiens.
In assay [8] the test system is SK-OV-3. The assay is described as follows: In vitro cytotoxic activity against SKOV3 cell line after 1 hour at less than 0.01 % of oxygen in gas phase. The class given is functional, Homo sapiens.

Molecules are shown by their SMILES.

For `COc1cc2cc(C(=O)N3CC(CCl)c4c3cc(N)c3ccccc43)[nH]c2c(OC)c1OC` (configuration not stated), the IC50 (in general, the point on the concentration scale where inhibition reaches its midpoint) was found to be 2.17 nM in assay [1], 1.14 nM in assay [2], 0.96 nM in assay [3] and 1.1 nM in assay [4].
On to `COc1cc2cc(C(=O)N3CC(CCl)c4c3cc(NC(=O)OCc3cnc([N+](=O)[O-])n3C)c3ccccc43)[nH]c2c(OC)c1OC` (configuration not stated), for which the C10 in assay [5] came out at 2100 nM; in assay [6], 15 nM; in assay [7], 600 nM; in assay [8], 135 nM. Besides, the IC50 in assay [1] came to 3.5 nM; in assay [2], 8 nM; in assay [3], 57 nM; in assay [4] it was 75 nM.
